Assay results taken from PubChem BioAssay AID248 (DTP/NCI, 2004).
Where “and” joins values, the source holds several entries; their conditions need not be identical. Identical values can stand only once. Inconclusive results and toxic doses are left out. Cut-off read from the data, not from the text of the source: active = T/C of 150% or more; inactive = T/C below 125%.

Test system: L1210 leukemia ip in BDF1 mice, survival T/C
Test: NCI In Vivo Anticancer Drug Screen. Data for tumor model L1210 Leukemia (intraperitoneal) in B6D2F1 (BDF1) mice
Details: endpoint: mean survival time, higher = longer survival
Summary of the method: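 Tumor cells were implanted, animals were treated, and survival was followed. The result divides the treated measurement by the vehicle-control measurement.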

[1] = dose: 100.0 mg/kg/injection, schedule: Q04DX003 (ip), vehicle: saline with Tween-80
[2] = dose: 200.0 mg/kg/injection, schedule: Q04DX003 (ip), vehicle: saline with Tween-80
[3] = dose: 400.0 mg/kg/injection, schedule: Q04DX003 (ip), vehicle: saline with Tween-80
[4] = dose: 100.0 mg/kg/injection, schedule: Q01DX001 (ip), vehicle: saline
[5] = dose: 200.0 mg/kg/injection, schedule: Q01DX001 (ip), vehicle: saline
[6] = dose: 400.0 mg/kg/injection, schedule: Q01DX001 (ip), vehicle: saline
[7] = dose: 50.0 mg/kg/injection, schedule: Q01DX009 (ip), vehicle: saline with Tween-80
[8] = dose: 100.0 mg/kg/injection, schedule: Q01DX009 (ip), vehicle: saline with Tween-80
[9] = dose: 200.0 mg/kg/injection, schedule: Q01DX009 (ip), vehicle: saline with Tween-80
[10] = dose: 400.0 mg/kg/injection, schedule: Q01DX009 (ip), vehicle: saline with Tween-80
[11] = dose: 100.0 mg/kg/injection, schedule: Q04DX003 (ip), vehicle: saline
[12] = dose: 75.0 mg/kg/injection, schedule: Q01DX009 (ip), vehicle: saline
[13] = dose: 150.0 mg/kg/injection, schedule: Q01DX009 (ip), vehicle: saline
[14] = dose: 100.0 mg/kg/injection, schedule: Q01DX001 (ip), vehicle: Klucel (hydroxypropylcellulose) (HPC)
[15] = dose: 200.0 mg/kg/injection, schedule: Q01DX001 (ip), vehicle: Klucel (hydroxypropylcellulose) (HPC)
[16] = dose: 400.0 mg/kg/injection, schedule: Q01DX001 (ip), vehicle: Klucel (hydroxypropylcellulose) (HPC)
[17] = dose: 75.0 mg/kg/injection, schedule: Q01DX001 (ip), vehicle: saline
[18] = dose: 50.0 mg/kg/injection, schedule: Q01DX001 (ip), vehicle: Klucel (hydroxypropylcellulose) (HPC)

Measured: T/C

CC(C)=CCC/C(C)=C/Cn1cc([N+](=O)[O-])ccc1=O
inactive: dose: 100.0 mg/kg/injection, schedule: Q01DX001 (ip), vehicle: saline with Tween-80 106 % of control | [1] 111 % of control | dose: 200.0 mg/kg/injection, schedule: Q01DX001 (ip), vehicle: saline with Tween-80 101 % of control | [2] 111 % of control | dose: 400.0 mg/kg/injection, schedule: Q01DX001 (ip), vehicle: saline with Tween-80 98 % of control | [3] 102 % of control

CCOC(=O)NN(C(=O)OCC)c1c(N(C)NC(C)=O)nc(N)[nH]c1=O
inactive: [4] 96 % of control | [5] 86 % of control | [6] 96 % of control

Nc1nc(N)nc(CCc2nc(N)nc(N)n2)n1
inactive: dose: 50.0 mg/kg/injection, schedule: Q01DX001 (ip), vehicle: carboxymethylcellulose (CMC) 95 % of control | dose: 100.0 mg/kg/injection, schedule: Q01DX001 (ip), vehicle: carboxymethylcellulose (CMC) 90 % of control | dose: 200.0 mg/kg/injection, schedule: Q01DX001 (ip), vehicle: carboxymethylcellulose (CMC) 87 % of control | dose: 400.0 mg/kg/injection, schedule: Q01DX001 (ip), vehicle: carboxymethylcellulose (CMC) 92 % of control

Nc1nccc(Cl)n1
inactive: dose: 12.5 mg/kg/injection, schedule: Q01DX009 (ip), vehicle: saline with Tween-80 89 % of control | dose: 25.0 mg/kg/injection, schedule: Q01DX009 (ip), vehicle: saline with Tween-80 92 % of control | [7] 92 % of control

CC(=O)CCC(=O)OC(C)(C)CN
inactive: [7] 102 % of control | dose: 50.0 mg/kg/injection, schedule: Q04DX003 (ip), vehicle: saline with Tween-80 99 % of control | [8] 103 % of control | [1] 87 % of control | [9] 107 % of control | [2] 91 % of control | [10] 103 % of control | [3] 96 % of control

Cc1nc2cc(N=Cc3ccc(N(CCCl)CCCl)cc3)ccc2n1C
inactive: dose: 68.8 mg/kg/injection, schedule: Q04DX002 (ip), vehicle: Klucel (hydroxypropylcellulose) (HPC) 104 % of control | dose: 137.5 mg/kg/injection, schedule: Q04DX002 (ip), vehicle: Klucel (hydroxypropylcellulose) (HPC) 104 % of control | dose: 275.0 mg/kg/injection, schedule: Q04DX002 (ip), vehicle: Klucel (hydroxypropylcellulose) (HPC) 104 % of control

CC1C(=O)Nc2ccccc2N1C(=O)CN1CCCC1 (configuration not stated)
inactive: dose: 50.0 mg/kg/injection, schedule: Q01DX009 (ip), vehicle: saline 98 % of control | dose: 100.0 mg/kg/injection, schedule: Q01DX009 (ip), vehicle: saline 101 % of control | [11] 96 % of control | dose: 200.0 mg/kg/injection, schedule: Q01DX009 (ip), vehicle: saline 106 % of control | dose: 200.0 mg/kg/injection, schedule: Q04DX003 (ip), vehicle: saline 96 % of control | dose: 400.0 mg/kg/injection, schedule: Q04DX003 (ip), vehicle: saline 94 % of control

COC(=O)CC(=O)OCC1C=CCC=C1
inactive: [1] 106 % of control | [2] 95 % of control | [3] 92 % of control

c1cc[c]([Sn]([c]2ccccc2)([c]2ccccc2)[c]2ccccc2)cc1
inactive: [7] 95 % of control | [8] 90 % of control | [9] 100 % of control

COc1cc(C)ccc1C1=CCCC1
inactive: dose: 37.5 mg/kg/injection, schedule: Q01DX009 (ip), vehicle: saline 116 % of control | dose: 75.0 mg/kg/injection, schedule: Q01DX001 (ip), vehicle: acetone 102 % of control | [12] 111 % of control | dose: 150.0 mg/kg/injection, schedule: Q01DX001 (ip), vehicle: acetone 91 % of control | [13] 106 % of control | dose: 225.0 mg/kg/injection, schedule: Q01DX009 (ip), vehicle: acetone 86 % of control | dose: 300.0 mg/kg/injection, schedule: Q01DX001 (ip), vehicle: acetone 89 % of control

CCOC(=O)C(CC#N)C(=O)OCC
inactive: dose: 75.0 mg/kg/injection, schedule: Q01DX001 (ip), vehicle: carboxymethylcellulose (CMC) 104 % of control | dose: 150.0 mg/kg/injection, schedule: Q01DX001 (ip), vehicle: carboxymethylcellulose (CMC) 98 % of control | dose: 300.0 mg/kg/injection, schedule: Q01DX001 (ip), vehicle: carboxymethylcellulose (CMC) 96 % of control

COc1ccc(C(=O)c2cc3cccc(OC)c3o2)cc1OC
inactive: [12] 87 % of control | [4] 102 % of control | [13] 92 % of control | [5] 94 % of control | dose: 300.0 mg/kg/injection, schedule: Q01DX009 (ip), vehicle: saline 93 % of control | [6] 93 % of control

Cc1ccc(N=Nc2ccc(C)cc2NC(=O)Nc2cccc(F)c2)cc1
inactive: [8] 90 % of control | [9] 90 % of control | [10] 98 % of control

Cc1ccc(N2CCN(c3ccc([N+](=O)[O-])cc3)CC2)cc1Cl
inactive: [1] 100 % of control | [2] 100 % of control | [3] 98 % of control

CC(C)(C)c1ccc(OS(=O)(=O)c2ccccc2[N+](=O)[O-])cc1
inactive: [14] 102 % of control | [15] 98 % of control | [16] 95 % of control

O=C(Nc1ccccc1Cl)OCC#CCOC(=O)Nc1ccccc1Cl
inactive: [1] 102 % of control | [2] 93 % of control | [3] 91 % of control

CCOP(=O)(OCC)O/N=C(/C#N)c1ccccc1
inactive: [17] 91 % of control

O=C(COc1c(Cl)cc(Cl)cc1Cl)Nc1cccnc1
inactive: [14] 100 % of control | [15] 100 % of control | [16] 107 % of control

NNc1n[nH]c(=S)n1N
inactive: dose: 25.0 mg/kg/injection, schedule: Q04DX003 (ip), vehicle: saline 90 % of control | [11] 97 % of control

CC(=O)OC(=O)c1ccc2c(c1)C(=O)c1ccccc1C2=O
inactive: dose: 25.0 mg/kg/injection, schedule: Q01DX009 (ip), vehicle: Klucel (hydroxypropylcellulose) (HPC) 100 % of control | [18] 105 % of control | dose: 50.0 mg/kg/injection, schedule: Q01DX009 (ip), vehicle: Klucel (hydroxypropylcellulose) (HPC) 98 % of control | [14] 111 % of control | dose: 100.0 mg/kg/injection, schedule: Q01DX009 (ip), vehicle: Klucel (hydroxypropylcellulose) (HPC) 102 % of control | dose: 100.0 mg/kg/injection, schedule: Q04DX003 (ip), vehicle: Klucel (hydroxypropylcellulose) (HPC) 100 % of control | [15] 111 % of control | [16] 96 % of control and 105 % of control

COc1ccccc1/C=C(\SS/C(=C/c1ccccc1OC)C(=O)O)C(=O)O
inactive: [4] 120 % of control | [5] 91 % of control

O=C1NCCC/C1=N/Nc1ccccc1
inactive: dose: 100.0 mg/kg/injection, schedule: Q04DX002 (ip), vehicle: Klucel (hydroxypropylcellulose) (HPC) 92 % of control | dose: 200.0 mg/kg/injection, schedule: Q04DX002 (ip), vehicle: Klucel (hydroxypropylcellulose) (HPC) 92 % of control | dose: 400.0 mg/kg/injection, schedule: Q04DX002 (ip), vehicle: Klucel (hydroxypropylcellulose) (HPC) 113 % of control

[C-]#[N+]C(C)(C)CC(C)(C)C
inactive: dose: 18.75 mg/kg/injection, schedule: Q04DX003 (ip), vehicle: acetone 103 % of control | dose: 33.0 mg/kg/injection, schedule: Q01DX001 (ip), vehicle: Klucel (hydroxypropylcellulose) (HPC) 110 % of control | dose: 33.0 mg/kg/injection, schedule: Q01DX001 (ip), vehicle: saline 104 % of control | dose: 37.5 mg/kg/injection, schedule: Q04DX003 (ip), vehicle: acetone 109 % of control | [18] 105 % of control | dose: 50.0 mg/kg/injection, schedule: Q01DX001 (ip), vehicle: saline 106 % of control | dose: 75.0 mg/kg/injection, schedule: Q01DX001 (ip), vehicle: Klucel (hydroxypropylcellulose) (HPC) 96 % of control | [17] 104 % of control | dose: 75.0 mg/kg/injection, schedule: Q04DX003 (ip), vehicle: acetone 107 % of control | dose: 110.0 mg/kg/injection, schedule: Q04DX003 (ip), vehicle: saline 94 % of control | dose: 170.0 mg/kg/injection, schedule: Q04DX003 (ip), vehicle: saline 106 % of control
